# According to US7705047B2, “Amidoacetonitrile derivatives” (Novartis AG, priority 2003, dated 2010):
# Tested on: Trichostrongylus colubriformis and Haemonchus contortus
# Test: In-vivo test on Trichostrongylus colubriformis and Haemonchus contortus on Mongolian gerbils using peroral application
# Design: species or system Mongolian gerbils (Meriones unguiculatus)
# Details: Mongolian gerbils infected with T. colubriformis and H. contortus, dose of 16 mg/kg, worm count 3 days after treatment
# Text: 1. In-vivo Test on Trichostrongylus colubriformis and Haemonchus contortus on Mongolian Gerbils (Meriones unguiculatus) using Peroral Application Six to eight week old Mongolian gerbils are infected through a stomach tube with ca. 2000 third instar larvae each of T. colubriformis and H. contortus. […] On day 9 (3 days after treatment), when most of the H. contortus that are still present are late 4th instar larvae and most of the T. colubriformis are immature adults, the gerbils are killed in order to count the worms. The efficacy is calculated as the % reduction of the number of worms in each gerbil, compared with the geometric average of number of worms from 6 infected and untreated gerbils.
smiles,measurement,value
"CC(C#N)(COc1cc(C#N)ccc1Oc1ccc(Cl)cc1Cl)NC(=O)c1ccc(OC(F)(F)F)cc1 (stereo not shown) [Compound 1.47, N-[1-cyano-1-methyl-2-(5-cyano-2-{2,4-dichlorophenoxy}-phenoxy)-ethyl]-4-trifluoromethoxybenzamide]",elimination of the nematode infestation,complete elimination
